This is an account of results in patent US20250368649A1, “TETRAHYDROPYRIDOPYRIMIDINE PAN-KRAS INHIBITORS” (Mirati Therapeutics, Inc., priority 2022, published 2025).

The target of one assay is KRas WT (Homo sapiens, UniProt P01116). The assay is described as follows: KRas binding assay (TR-FRET displacement), KRas WT. The settings on record: for inhibition at 0.01 µM: single point, 10 nM compound; for IC50: TR-FRET displacement.
For another assay, the target named is KRas G12A (Homo sapiens, UniProt P01116, G12A). Type of assay: binding. The settings on record: single point, 10 nM compound, read-out: Binding to KRas (% inhibition at 10 nM) G12A.
Another assay has as its target KRas G12C (Homo sapiens, UniProt P01116, G12C). Format: binding. The settings on record: for inhibition at 0.01 µM: single point, 10 nM compound, read-out: Binding to KRas (% inhibition at 10 nM) G12C; for IC50: TR-FRET displacement, read-out: Binding to KRas (IC50 nM) G12C.
The next assay has as its target KRas G12S (Homo sapiens, UniProt P01116, G12S). Type of assay: binding. The settings on record: for inhibition at 0.01 µM: single point, 10 nM compound, read-out: Binding to KRas (% inhibition at 10 nM) G12S; for IC50: TR-FRET displacement, read-out: Binding to KRas (IC50 nM) G12S.
A further assay deals with KRas G13D (Homo sapiens, UniProt P01116, G13D). Format: binding. The settings on record: single point, 10 nM compound, read-out: Binding to KRas (% inhibition at 10 nM) G13D.
Another assay concerns the target KRas Q61H (Homo sapiens, UniProt P01116, Q61H). The assay is described as follows: KRas binding assay (TR-FRET displacement), KRas Q61H. The settings on record: single point, 10 nM compound. A general note: Time-resolved FRET reads energy transfer from a long-lived donor to a nearby acceptor.
A further assay relates to MKN1 cells. The assay is described as follows: Inhibition of KRas-mediated phosphorylation of ERK (Cisbio HTRF pERK), MKN1 cells. Format: cell-based. The settings on record: Homo sapiens. The gist of the method: (§1)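 Cells were seeded on day 1 at 6,000 per well in RPMI containing 10% FBS before compound treatment and phospho-ERK detection.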
The test system of the next assay is PSN1 cells. The assay can be described thus: Inhibition of KRas-mediated phosphorylation of ERK (Cisbio HTRF pERK), PSN1 cells. Format: cell-based. The settings on record: Homo sapiens, PSN1, 3 h. The gist of the method: as §1
The subject of another assay is ASPC1 cells. The assay is described as follows: Inhibition of KRas-mediated phosphorylation of ERK (Cisbio HTRF pERK), ASPC1 cells. Format: cell-based. The settings on record: Homo sapiens, ASPC1, 3 h, AsPC-1 cells, 3 hr compound incubation.
The next assay has as its system H727 cells. The assay can be described thus: Inhibition of KRas-mediated phosphorylation of ERK (Cisbio HTRF pERK), H727 cells. The settings on record: Homo sapiens, NCI-H727, 3 h, 3 hr compound incubation. Type of assay: cell-based.
Another assay concerns A549 cells. The assay can be described thus: Inhibition of KRas-mediated phosphorylation of ERK (Cisbio HTRF pERK), A549 cells. Format: cell-based. The settings on record: Homo sapiens; for IC50: A549, 3 h, 3 hr compound incubation; for inhibition at 0.1 µM: single point at 100 nM, 3 hrs compound incubation.
The test system of the next assay is H460 cells. The assay is described as follows: Inhibition of KRas-mediated phosphorylation of ERK (Cisbio HTRF pERK), H460 cells. Type of assay: cell-based. The settings on record: Homo sapiens, NCI-H460, 3 h, 3 hr compound incubation.
In a further assay the test system is HCT116 cells. The assay is described as follows: Inhibition of KRas-mediated phosphorylation of ERK (Cisbio HTRF pERK), HCT116 cells. Type of assay: cell-based. The settings on record: Homo sapiens, HCT-116, 3 h, 3 hr compound incubation.
For a further assay, the system named is H358 cells. The assay can be described thus: Inhibition of KRas-mediated phosphorylation of ERK (Cisbio HTRF pERK), H358 cells. Type of assay: cell-based. The settings on record: Homo sapiens; for IC50: NCI-H358, 3 h, 3 hr compound incubation; for inhibition at 0.1 µM: NCI-H358, single point at 100 nM, 3 hrs compound incubation.
A further assay concerns the target KRas G12D (Homo sapiens, UniProt P01116, G12D). The assay is described as follows: biochemical. The settings on record: Binding to KRas (IC50 nM) G12D, TR-FRET displacement, KRas G12D.
The target in another assay is KRas G12R (Homo sapiens, UniProt P01116, G12R). The assay can be described thus: biochemical. The settings on record: Binding to KRas (IC50 nM) G12R, TR-FRET displacement, KRas G12R.
The next assay deals with KRas G12V (Homo sapiens, UniProt P01116, G12V). The assay can be described thus: biochemical. The settings on record: Binding to KRas (IC50 nM) G12V, TR-FRET displacement, KRas G12V.
Another assay deals with H2009 cells. The assay can be described thus: Inhibition of KRas-mediated phosphorylation of ERK (Cisbio HTRF pERK), H2009 cells. Format: cell-based. The settings on record: Homo sapiens, NCI-H2009, 3 hr compound incubation.
[1] abbreviates: MKN-1, 3 hour compound incubation, Cisbio pERK HTRF.
The mark [2] stands for this setting: 3 hour compound incubation, Cisbio pERK HTRF.
[3] abbreviates: MKN-1, 3 hr compound incubation.

Sequence of KRas WT (P01116 1-169 isoform P01116-2): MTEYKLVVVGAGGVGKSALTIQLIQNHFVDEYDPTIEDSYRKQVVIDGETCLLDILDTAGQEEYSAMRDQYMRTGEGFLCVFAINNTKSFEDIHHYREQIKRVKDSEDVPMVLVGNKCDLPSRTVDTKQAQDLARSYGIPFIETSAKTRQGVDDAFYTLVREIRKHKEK
Sequence of KRas G12A (P01116 1-169 isoform P01116-2 G12A): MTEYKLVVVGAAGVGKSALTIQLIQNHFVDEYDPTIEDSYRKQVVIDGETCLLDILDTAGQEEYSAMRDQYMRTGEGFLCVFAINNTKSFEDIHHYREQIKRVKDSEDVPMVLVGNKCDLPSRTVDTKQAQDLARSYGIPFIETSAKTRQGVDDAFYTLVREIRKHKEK
Sequence of KRas G12D (P01116 1-169 isoform P01116-2 G12D): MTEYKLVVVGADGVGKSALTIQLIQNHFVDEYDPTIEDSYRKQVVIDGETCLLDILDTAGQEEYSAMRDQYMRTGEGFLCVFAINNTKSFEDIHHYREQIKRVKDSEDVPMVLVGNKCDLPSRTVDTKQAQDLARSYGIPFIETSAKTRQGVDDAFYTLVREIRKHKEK
Sequence of KRas G13D (P01116 1-169 isoform P01116-2 G13D): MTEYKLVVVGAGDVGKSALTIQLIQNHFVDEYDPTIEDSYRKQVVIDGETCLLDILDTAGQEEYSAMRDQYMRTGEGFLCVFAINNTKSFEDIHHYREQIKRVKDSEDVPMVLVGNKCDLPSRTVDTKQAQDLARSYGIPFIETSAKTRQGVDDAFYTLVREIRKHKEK
Sequence of KRas G12C (P01116 1-169 isoform P01116-2 G12C): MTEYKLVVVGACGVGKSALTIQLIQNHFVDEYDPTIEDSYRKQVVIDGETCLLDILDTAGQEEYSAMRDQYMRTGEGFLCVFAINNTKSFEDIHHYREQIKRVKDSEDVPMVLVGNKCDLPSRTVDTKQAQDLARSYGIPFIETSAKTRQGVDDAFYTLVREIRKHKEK
Sequence of KRas G12V (P01116 1-169 isoform P01116-2 G12V): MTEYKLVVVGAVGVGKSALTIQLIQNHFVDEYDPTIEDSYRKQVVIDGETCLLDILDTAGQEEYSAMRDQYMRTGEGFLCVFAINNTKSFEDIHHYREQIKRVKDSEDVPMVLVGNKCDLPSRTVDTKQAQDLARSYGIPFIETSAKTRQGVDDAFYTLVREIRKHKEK
Sequence of KRas G12R (P01116 1-169 isoform P01116-2 G12R): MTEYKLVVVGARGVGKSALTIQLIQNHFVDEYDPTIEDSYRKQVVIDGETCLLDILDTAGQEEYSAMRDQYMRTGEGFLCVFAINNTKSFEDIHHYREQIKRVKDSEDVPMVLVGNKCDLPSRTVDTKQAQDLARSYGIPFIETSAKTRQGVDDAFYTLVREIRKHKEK
Sequence of KRas Q61H (P01116 1-169 isoform P01116-2 Q61H): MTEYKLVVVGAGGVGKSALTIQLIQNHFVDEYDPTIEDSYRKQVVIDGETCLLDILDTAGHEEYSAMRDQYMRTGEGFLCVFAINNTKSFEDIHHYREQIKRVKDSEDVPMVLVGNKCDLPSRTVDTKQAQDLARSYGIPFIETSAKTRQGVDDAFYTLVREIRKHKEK
Sequence of KRas G12S (P01116 1-169 isoform P01116-2 G12S): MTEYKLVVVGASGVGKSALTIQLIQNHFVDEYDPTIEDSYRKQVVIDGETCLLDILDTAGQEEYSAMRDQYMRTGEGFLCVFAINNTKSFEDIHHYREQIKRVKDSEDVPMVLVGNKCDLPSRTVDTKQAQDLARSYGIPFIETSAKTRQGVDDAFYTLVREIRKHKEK

Take `CCc1c(F)ccc2cc(O)cc(N3CCc4c(nc(OC[C@@]56CCCN5C[C@H](F)C6)nc4N4CCCn5nc(C(=O)N(CC)CC)cc5C4)C3)c12` [Example 390, N,N-diethyl-5-(7-(8-ethyl-7-fluoro-3-hydroxynaphthalen-1-yl)-2-(((2R,7aS)-2-fluorohexahydro-1H-pyrrolizin-7a-yl)methoxy)-5,6,7,8-tetrahydropyrido[3,4-d]pyrimidin-4-yl)-5,6,7,8-tetrahydro-4H-pyrazolo[1,5-a][1,4]diazepine-2-carboxamide]: the inhibition – broadly, the percentage by which the read-out fell short of the control – at 0.01 µM is 95% at KRas WT; 95% on KRas G12A; 99% at KRas G12C; 98% at KRas G12S; 95% at KRas G13D; 97% at KRas Q61H. Moreover, the IC50 (as a rule, the concentration that gives 50% inhibition) in the assay on MKN1 cells (setting [1]) was found to be 9.6 nM; in the assay on PSN1 cells (setting [2]) it was 3850 nM; with ASPC1 cells (Cisbio pERK HTRF), 1 nM; in the assay with H727 cells (Cisbio pERK HTRF), 3 nM; with A549 cells (Cisbio pERK HTRF), 5 nM; in the assay with H460 cells (Cisbio pERK HTRF) it was 15 nM. Further, the 50% inhibitory concentration (IC50) in the assay on HCT116 cells (Cisbio pERK HTRF) is 42 nM; in the assay on H358 cells (Cisbio pERK HTRF), 1 nM; at KRas G12D, < 2 nM; at KRas G12R, < 2 nM; at KRas G12V, < 2 nM. Further, the inhibition at 0.1 µM in the assay with A549 cells was found to be 79%; with H358 cells it was 98%.
Turning to `CCc1c(F)ccc2cc(O)cc(N3CCc4c(nc(OC[C@@]56CCCN5C[C@H](F)C6)nc4N4CCCn5nnc(Cl)c5C4)C3)c12` [Example 391, 4-(4-(3-chloro-7,8-dihydro-4H-[1,2,3]triazolo[1,5-a][1,4]diazepin-5(6H)-yl)-2-(((2R,7aS)-2-fluorohexahydro-1H-pyrrolizin-7a-yl)methoxy)-5,6-dihydropyrido[3,4-d]pyrimidin-7(8H)-yl)-5-ethyl-6-fluoronaphthalen-2-ol], the inhibition at 0.01 µM at KRas WT came out at 81%; at KRas G12A it was 81%; on KRas G12C it was 93%; on KRas G12S it was 94%; on KRas G13D, 86%; on KRas Q61H it was 85%. Besides, the IC50 was 57.6 nM in the assay with MKN1 cells (setting [1]); > 10000 nM in the assay with PSN1 cells (setting [2]); 4 nM with ASPC1 cells (Cisbio pERK HTRF); 26 nM in the assay on H727 cells (Cisbio pERK HTRF); 43 nM in the assay on H460 cells (Cisbio pERK HTRF); 128 nM in the assay on HCT116 cells (Cisbio pERK HTRF). Also, the IC50 at KRas G12D was < 2 nM; on KRas G12R it was 3 nM; on KRas G12V it was < 2 nM. Moreover, the inhibition at 0.1 µM in the assay with A549 cells was 69%; in the assay on H358 cells, 77%.
Turning to `CCc1c(F)ccc2cc(O)cc(N3CCc4c(nc(OC[C@@]56CCCN5C[C@H](F)C6)nc4N4CCCn5nc6c(c5C4)CCCN6)C3)c12` [Example 392, 5-ethyl-6-fluoro-4-(2-(((2R,7aS)-2-fluorohexahydro-1H-pyrrolizin-7a-yl)methoxy)-4-(3,4,8,9-tetrahydro-1H-pyrido[2′,3′:3,4]pyrazolo[1,5-a][1,4]diazepin-6(2H,5H,7H)-yl)-5,6-dihydropyrido[3,4-d]pyrimidin-7(8H)-yl)naphthalen-2-ol], the inhibition at 0.01 µM at KRas WT came out at 55%; at KRas G12A it was 56%; at KRas G12C, 78%; at KRas G12S, 71%; at KRas G13D, 50%; on KRas Q61H, 54%. For the same molecule, the IC50 in the assay with MKN1 cells (setting [1]) is 111 nM; with PSN1 cells (setting [2]), > 10000 nM; in the assay on ASPC1 cells (Cisbio pERK HTRF), 72 nM; in the assay with H727 cells (Cisbio pERK HTRF), 136 nM; with H460 cells (Cisbio pERK HTRF) it was 285 nM; in the assay on HCT116 cells (Cisbio pERK HTRF), 813 nM. Besides, the results for the 50% inhibitory concentration (IC50) on KRas G12D, on KRas G12R and at KRas G12V were 3 nM, < 2 nM and 2 nM, respectively. For the same molecule, the values for the inhibition at 0.1 µM in the assay on A549 cells and in the assay with H358 cells were 38% and 47%, respectively.
For `CCc1c(F)ccc2cc(O)cc(N3CCc4c(nc(OC[C@@]56CCCN5C[C@H](F)C6)nc4N4CCCn5nc(NC)c(OC)c5C4)C3)c12` [Example 393, 5-ethyl-6-fluoro-4-(2-(((2R,7aS)-2-fluorohexahydro-1H-pyrrolizin-7a-yl)methoxy)-4-(3-methoxy-2-(methylamino)-7,8-dihydro-4H-pyrazolo[1,5-a][1,4]diazepin-5(6H)-yl)-5,6-dihydropyrido[3,4-d]pyrimidin-7(8H)-yl)naphthalen-2-ol], the inhibition at 0.01 µM on KRas WT is 60%; at KRas G12A, 66%; on KRas G12C, 83%; at KRas G12S it was 72%; at KRas G13D, 64%; on KRas Q61H, 60%. In addition, the half-maximal inhibitory concentration (IC50) in the assay with MKN1 cells (setting [1]) was 58.5 nM; in the assay with PSN1 cells (setting [2]) it was > 10000 nM; with ASPC1 cells (Cisbio pERK HTRF), 59 nM; in the assay on H727 cells (Cisbio pERK HTRF), 201 nM; in the assay with H460 cells (Cisbio pERK HTRF), 72 nM; with HCT116 cells (Cisbio pERK HTRF), 235 nM. The results for the IC50 on KRas G12D, at KRas G12R and on KRas G12V were 4 nM, 4 nM and 5 nM, respectively. The figures for the inhibition at 0.1 µM with A549 cells and in the assay with H358 cells were 41% and 83%, respectively.
As for `C[C@@]1(O)COCCN(c2nc(OC[C@@]34CCCN3C[C@H](F)C4)nc3c2CCN(c2ccc(F)c4sc(N)c(C#N)c24)C3)C1` [Example 710, 2-amino-7-fluoro-4-(2-(((2R,7aS)-2-fluorotetrahydro-1H-pyrrolizin-7a(5H)-yl)methoxy)-4-((S)-6-hydroxy-6-methyl-1,4-oxazepan-4-yl)-5,8-dihydropyrido[3,4-d]pyrimidin-7(6H)-yl)benzo[b]thiophene-3-carbonitrile], the concentration for half-maximal inhibition (IC50) on KRas WT was 52 nM; at KRas G12C, 48 nM; at KRas G12S it was 60 nM; with MKN1 cells (setting [3]) it was 75.9 nM; in the assay with PSN1 cells (3 hr compound incubation), > 10000 nM; in the assay with ASPC1 cells, 626 nM. The 50% inhibitory concentration (IC50) came to 1110 nM with H727 cells; 1210 nM in the assay on A549 cells; 813 nM in the assay on H460 cells; 1860 nM in the assay with HCT116 cells; 484 nM with H358 cells; 221 nM with H2009 cells. Further, the IC50 was 57 nM at KRas G12D and 60 nM on KRas G12V.
On to `C[C@@]1(O)CCCN(c2nc(OC[C@@]34CCCN3C[C@H](F)C4)nc3c2CCN(c2ccc(F)c4sc(N)c(C#N)c24)C3)C1` [Example 711, 2-amino-7-fluoro-4-(2-(((2R,7aS)-2-fluorotetrahydro-1H-pyrrolizin-7a(5H)-yl)methoxy)-4-((R)-3-hydroxy-3-methylpiperidin-1-yl)-5,8-dihydropyrido[3,4-d]pyrimidin-7(6H)-yl)benzo[b]thiophene-3-carbonitrile], for which the IC50 at KRas WT was 10 nM; on KRas G12C, 19 nM; on KRas G12S it was 13 nM; in the assay with MKN1 cells (setting [3]), 830 nM; with PSN1 cells (3 hr compound incubation), > 10000 nM; with ASPC1 cells, 1940 nM. In addition, the IC50 was 7410 nM in the assay with H727 cells; 4820 nM in the assay with A549 cells; 2520 nM with H460 cells; 7220 nM with HCT116 cells; 2680 nM in the assay with H358 cells; 424 nM with H2009 cells. Also, the IC50 at KRas G12D was determined as 17 nM; at KRas G12V it was 21 nM.
